Source: patent US11312727B1, “Macrocyclic flu endonuclease inhibitors” (Janssen BioPharma, Inc., priority 2018, dated 2022)

How the values were obtained:
[1] = test system: Influenza strain A549 A/WSN/33 (H1N1); assay: microbe, parasite or virus in culture; type: cell-based; conditions: Influenza A virus, A549, 20 h, A549 cells, influenza A/WSN/33 (H1N1), 20 hours incubation; read-out: A549_A(H1N1) EC50
[2] = in vitro; conditions: human, CC50, uninfected A549 cells, CellTiter-Glo

Structure (SMILES) | EC50 [1] [nM] | CC50 [2] [nM]
COc1ccccc1[C@H]1c2cccc(F)c2OC/C=C\CN2CN1n1ccc(=O)c(O)c1C2=O (single isomer, unassigned) [Compound 117B, (18*S,*Z)-4-fluoro-12-hydroxy-18-(2-methoxyphenyl)-6,9-dihydro-18H-10,17-methanobenzo[b]pyrido[1,2-f][1]oxa[5,6,9]triazacyclotridecine-11,13-dione] | > 100 | > 200
O=C1c2c(O)c(=O)ccn2N2CN1C[C@H]1C[C@H]1COc1cccc3c1[C@H]2c1ccccc1SC3 (single isomer, unassigned) [Compound 118AA, (1a*R,11b*S,20a*S)-17-hydroxy-1a,2,6,11 b,17,17a,20,20a-octahydro-1H-5,4-(epiprop[1]en[1]yl[3]ylidene)-12,19-methanobenzo[6,7]thiepino[4,5-c]cyclopropa[k]pyrido[1,2-f][1]oxa[5,6,9]triazacyclotridecine-16,18-dione] | 6.2 | > 200
O=C1c2c(O)c(=O)ccn2N2CN1C[C@@H]1C[C@@H]1COc1cccc3c1[C@H]2c1ccccc1SC3 (single isomer, unassigned) [Compound 118AB, (1a*S,11b*S,20a*R)-17-hydroxy-1a,2,6,11b,17,17a,20,20a-octahydro-1H-5,4-(epiprop[1]en[1]yl[3]ylidene)-12,19-methanobenzo[6,7]thiepino[4,5-c]cyclopropa[k]pyrido[1,2-f][1]oxa[5,6,9]triazacyclotridecine-16,18-dione] | 10 | > 200
CSc1ccccc1[C@H]1c2cccc(F)c2OC/C=C\CN2CN1n1ccc(=O)c(O)c1C2=O (single isomer, unassigned) [Compound 119A, (18*R,*Z)-4-fluoro-12-hydroxy-18-(2-(methylthio)phenyl)-6,9-dihydro-18H-10,17-methanobenzo[b]pyrido[1,2-f][1]oxa[5,6,9]triazacyclotridecine-11,13-dione] | > 100 | > 200
CSc1ccccc1[C@@H]1c2cccc(F)c2OC/C=C\CN2CN1n1ccc(=O)c(O)c1C2=O (single isomer, unassigned) [Compound 119B, (18*S,*Z)-4-fluoro-12-hydroxy-18-(2-(methylthio)phenyl)-6,9-dihydro-18H-10,17-methanobenzo[b]pyrido[1,2-f][1]oxa[5,6,9]triazacyclotridecine-11,13-dione] | 22 | > 200
CC[C@@H]1/C=C/COc2c(ccc(Cl)c2Cl)C(c2ccccc2)N2CN1C(=O)c1c(O)c(=O)ccn12 (single isomer, unassigned) [Compound 121AA, (9*R,18*R,*E)-3,4-dichloro-9-ethyl-12-hydroxy-18-phenyl-6,9-dihydro-18H-10,17-methanobenzo[b]pyrido[1,2-f][1]oxa[5,6,9]triazacyclotridecine-11,13-dione] | 3.5 | > 200
CC[C@H]1/C=C/COc2c(ccc(Cl)c2Cl)[C@@H](c2ccccc2)N2CN1C(=O)c1c(O)c(=O)ccn12 (single isomer, unassigned) [Compound 121AB, (9*S,18*R,*E)-3,4-dichloro-9-ethyl-12-hydroxy-18-phenyl-6,9-dihydro-18H-10,17-methanobenzo[b]pyrido[1,2-f][1]oxa[5,6,9]triazacyclotridecine-11,13-dione] | > 100 | > 200
CC[C@@H]1/C=C/COc2c(ccc(Cl)c2Cl)[C@H](c2ccccc2)N2CN1C(=O)c1c(O)c(=O)ccn12 (single isomer, unassigned) [Compound 121BA, (9*R,18*S,*E)-3,4-dichloro-9-ethyl-12-hydroxy-18-phenyl-6,9-dihydro-18H-10,17-methanobenzo[b]pyrido[1,2-f][1]oxa[5,6,9]triazacyclotridecine-11,13-dione] | 2.8 | > 200
CC[C@H]1/C=C/COc2c(ccc(Cl)c2Cl)[C@H](c2ccccc2)N2CN1C(=O)c1c(O)c(=O)ccn12 (single isomer, unassigned) [Compound 121BB, (9*S,18*S,*E)-3,4-dichloro-9-ethyl-12-hydroxy-18-phenyl-6,9-dihydro-18H-10,17-methanobenzo[b]pyrido[1,2-f][1]oxa[5,6,9]triazacyclotridecine-11,13-dione] | 60 | > 200
CS(=O)(=O)c1ccccc1[C@@H]1c2cccc(F)c2OC/C=C\CN2CN1n1ccc(=O)c(O)c1C2=O (single isomer, unassigned) [Compound 122, (18*S,*Z)-4-fluoro-12-hydroxy-18-(2-(methylsulfonyl)phenyl)-6,9-dihydro-18H-10,17-methanobenzo[b]pyrido[1,2-f][1]oxa[5,6,9]triazacyclotridecine-11,13-dione] | > 100 | > 200
CC(C)[C@H]1/C=C/COc2c(F)cccc2[C@@H](c2ccccc2)N2CN1C(=O)c1c(O)c(=O)ccn12 (single isomer, unassigned) [Compound 124AA, (9*S,18*R,*E)-4-fluoro-12-hydroxy-9-isopropyl-18-phenyl-6,9-dihydro-18H-10,17-methanobenzo[b]pyrido[1,2-f][1]oxa[5,6,9]triazacyclotridecine-11,13-dione] | > 100 | > 200
CC(C)[C@@H]1/C=C/COc2c(F)cccc2[C@H](c2ccccc2)N2CN1C(=O)c1c(O)c(=O)ccn12 (single isomer, unassigned) [Compound 124BB, (9*R,18*S,*E)-4-fluoro-12-hydroxy-9-isopropyl-18-phenyl-6,9-dihydro-18H-10,17-methanobenzo[b]pyrido[1,2-f][1]oxa[5,6,9]triazacyclotridecine-11,13-dione] | 5.3 | > 200
O=C1c2c(O)c(=O)ccn2N2CN1C[C@@H]1C[C@H]1COc1c(F)cccc1[C@H]2c1ccccc1 (single isomer, unassigned) [Compound 125AA, (1a*R,8*R,17a*R)-4-fluoro-14-hydroxy-8-phenyl-1a,2,17,17a-tetrahydro-1H,8H-9,16-methanobenzo[b]cyclopropa[k]pyrido[1,2-f][1]oxa[5,6,9]triazacyclotridecine-13,15-dione] | 51 | > 200
O=C1c2c(O)c(=O)ccn2N2CN1C[C@H]1C[C@@H]1COc1c(F)cccc1[C@H]2c1ccccc1 (single isomer, unassigned) [Compound 125AB, (1a*R,8*S,17a*R)-4-fluoro-14-hydroxy-8-phenyl-1a,2,17,17a-tetrahydro-1H,8H-9,16-methanobenzo[b]cyclopropa[k]pyrido[1,2-f][1]oxa[5,6,9]triazacyclotridecine-13,15-dione] | 24 | > 200
O=C1c2c(O)c(=O)ccn2N2CN1C[C@@H]1C[C@H]1COc1c(F)cccc1[C@@H]2c1ccccc1 (single isomer, unassigned) [Compound 125BA, (1a*S,8*R,17a*S)-4-fluoro-14-hydroxy-8-phenyl-1a,2,17,17a-tetrahydro-1H,8H-9,16-methanobenzo[b]cyclopropa[k]pyrido[1,2-f][1]oxa[5,6,9]triazacyclotridecine-13,15-dione] | > 100 | > 200
O=C1c2c(O)c(=O)ccn2N2CN1C[C@H]1C[C@@H]1COc1c(F)cccc1[C@@H]2c1ccccc1 (single isomer, unassigned) [Compound 125BB, (1a*S,8*S,17a*S)-4-fluoro-14-hydroxy-8-phenyl-1a,2,17,17a-tetrahydro-1H,8H-9,16-methanobenzo[b]cyclopropa[k]pyrido[1,2-f][1]oxa[5,6,9]triazacyclotridecine-13,15-dione] | > 100 | > 200
CC[C@H]1/C=C\COc2cc(F)c(F)c3c2[C@H](c2ccccc2SC3)N2CN1C(=O)c1c(O)c(=O)ccn12 (single isomer, unassigned) [Compound 126AA, (13*S,21a*R,Z)-13-ethyl-24,25-difluoro-16-hydroxy-6,10,13,21a-tetrahydro-7,8-(epiprop[1]en[1]yl[3]ylidene)-14,21-methanobenzo[6,7]thiepino[4,5-c]pyrido[1,2-f][1]oxa[5,6,9]triazacyclotridecine-15,17-dione] | > 100 | > 200
CC[C@@H]1/C=C/COc2cc(F)c(F)c3c2[C@H](c2ccccc2SC3)N2CN1C(=O)c1c(O)c(=O)ccn12 (single isomer, unassigned) [Compound 126AB, (9*R,17a*R,E)-9-ethyl-24,25-difluoro-12-hydroxy-2,6,9,17a-tetrahydro-3,4-(epiprop[1]en[1]yl[3]ylidene)-10,17-methanobenzo[6,7]thiepino[4,5-c]pyrido[1,2-f][1]oxa[5,6,9]triazacyclotridecine-11,13-dione] | > 100 | > 200
CC[C@H]1/C=C/COc2cc(F)c(F)c3c2[C@@H](c2ccccc2SC3)N2CN1C(=O)c1c(O)c(=O)ccn12 (single isomer, unassigned) [Compound 126BA, (9*S,17a*S,E)-9-ethyl-24,25-difluoro-12-hydroxy-2,6,9,17a-tetrahydro-3,4-(epiprop[1]en[1]yl[3]ylidene)-10,17-methanobenzo[6,7]thiepino[4,5-c]pyrido[1,2-f][1]oxa[5,6,9]triazacyclotridecine-11,13-dione] | 0.23 | > 50
CC[C@@H]1/C=C\COc2cc(F)c(F)c3c2[C@@H](c2ccccc2SC3)N2CN1C(=O)c1c(O)c(=O)ccn12 (single isomer, unassigned) [Compound 126BB, (13*R,21a*S,Z)-13-ethyl-24,25-difluoro-16-hydroxy-6,10,13,21a-tetrahydro-7,8-(epiprop[1]en[1]yl[3]ylidene)-14,21-methanobenzo[6,7]thiepino[4,5-c]pyrido[1,2-f][1]oxa[5,6,9]triazacyclotridecine-15,17-dione] | 1 | > 200
